{"source": "PubChem BioAssay AID1963597", "about": "(National Center for Advancing Translational Sciences (NCATS), 2024)"}
{"test_system": "human liver microsomes, metabolic stability half-life", "test": "NCATS Human Liver Microsomal (HLM) Stability Profiling", "details": "higher = more stable; screened at 1 µM (by protocol)", "outline": "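Substrate depletion (in vitro t1/2): 1 µM compound with 0.5 mg/mL microsomes and NADPH regenerating system, phosphate buffer pH 7.4, 37 °C. Sampled at 0, 5, 10, 15, 30, 60 min into cold acetonitrile with albendazole internal standard for MS quantification.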", "units": {"half-life": "min"}}
{"smiles": "O=C(Cn1ncc2c([nH]c3ccccc32)c1=O)NCCCN1CCN(c2ccccc2)CC1", "half-life": "> 120"}
{"smiles": "CC1(C#N)CCN(c2c(C(=O)N3CCC(S(C)(=O)=O)CC3)cnc3cc(F)c(F)cc23)CC1", "half-life": "> 120"}
{"smiles": "NC(N)=NS(=O)(=O)c1ccc(N)cc1", "half-life": 78.3}
{"smiles": "O=C(CCNc1c(-c2ccccc2)nc2cnccn12)N1CCCC1", "half-life": 7.99}
{"smiles": "O=C(Nc1ccnc(NC(=O)C2CC2)c1)c1c(Cl)cccc1Cl", "half-life": "> 120"}
{"smiles": "CCN1CCN(C(=O)Cc2cccn2-c2ccc(F)cc2)CC1", "half-life": 114}
{"smiles": "COc1cccc2c1C(=O)c1c(O)c3c(c(O)c1C2=O)C[C@@](O)(C(=O)CO)C[C@@H]3O[C@H]1C[C@H](N)[C@H](O[C@@H]2CCCCO2)[C@H](C)O1", "half-life": "> 120"}
{"smiles": "CCc1cccc(CC)c1NC(=O)N1Cc2[nH]nc(NC(=O)c3ccc(N4CCN(C)CC4)cc3)c2C1", "half-life": "> 120"}
{"smiles": "O=C(CCCN1CCC(n2c(=O)[nH]c3ccccc32)CC1)c1ccc(F)cc1", "half-life": "> 120"}
{"smiles": "CCCCNc1c(C(=O)OCC)c(C)nc2c1cnn2CC", "half-life": 5.85}
{"smiles": "CCN(CC)Cc1ccc(C(=O)N(CCc2ccccc2OC)[C@@H]2CCNC2)cc1", "half-life": "> 120"}
{"smiles": "COC(=O)[C@@H]1[C@H]2C[C@H]3c4[nH]c5ccccc5c4CCN3C[C@@H]2CC[C@@H]1O", "half-life": 83.9}
{"smiles": "COc1ccc(C(=O)c2ccccc2O)c(O)c1", "half-life": 8.9}
{"smiles": "COc1ccc(-c2nc3ccccc3c(=O)n2Cc2ccco2)cc1COc1ccc(NC(C)=O)cc1", "half-life": 1.85}
{"smiles": "Nc1ncnc2c1c(COc1cccc(Cl)c1)nn2C1CCOCC1", "half-life": 39.9}
{"smiles": "COCCCNC(=O)C(=O)Nc1c2c(nn1-c1cccc(Cl)c1)CSC2", "half-life": 24.9}
{"smiles": "Cc1ncc(CSSCc2cnc(C)c(O)c2CO)c(CO)c1O", "half-life": "> 120"}
{"smiles": "CCc1ccc(CNC(=O)c2sc3ncccc3c2-n2c(C)ccc2C)cc1", "half-life": 1.9}
{"smiles": "COc1cccc(NC(=O)c2oc3ccc(S(=O)(=O)N4CCC5(CC4)OCCO5)cc3c2C)c1", "half-life": 12.2}
{"smiles": "C[C@@]1(c2cc(-c3cncnc3)c(F)cc2F)CCSC(N)=N1", "half-life": "> 120"}
{"smiles": "Cn1cc(-c2ccc3nnc(Sc4ccc5nn(C)cc5c4)n3n2)cn1", "half-life": "> 120"}
{"smiles": "CN(C)c1cc2c(cc1Sc1nc3c(N)nccc3n1CCNCC(C)(C)C)OCO2", "half-life": 3.18}
{"smiles": "COc1cc2ncnc(Nc3ccc(F)c(Cl)c3)c2cc1NC(=O)C=CCN1CCCCC1", "half-life": "> 120"}
{"smiles": "CC(C)(C)c1ccc(S(=O)(=O)c2cnc(SCC(=O)Nc3ccc(F)c(Cl)c3)[nH]c2=O)cc1", "half-life": 73.1}
{"smiles": "Cc1nc2ccc(CN(C)c3ccc(C(=O)NC(CCC(=O)O)C(=O)O)s3)cc2c(=O)[nH]1", "note": "(stereo not given)", "half-life": "> 120"}
{"smiles": "O=C(O)c1ccc[n+]([O-])c1", "half-life": 106}
{"smiles": "O=C(CSc1nc2ccccc2n1Cc1cccc(Cl)c1)N1CCN(c2ccc(F)cc2)CC1", "half-life": 0.81}
{"smiles": "CN1CCN(C(=O)c2ccc(Nc3nccc(-c4cccs4)n3)cc2Cl)CC1", "half-life": 19.2}
{"smiles": "Cc1cc(O)c2c(c1)C(=O)c1cccc(O)c1C2=O", "half-life": 1.86}
{"smiles": "CC1CC(C)(C)N(C(=O)CN2C(=O)c3ccccc3C2=O)c2ccccc21", "note": "(stereo not given)", "half-life": 8.38}
{"smiles": "CC1=C(C(=O)Nc2cccc(-c3cn[nH]c3)c2)C(c2ccccc2Cl)N=C(Nc2nc3ccccc3o2)N1", "note": "(stereo not given)", "half-life": 49.1}
{"smiles": "CCCC(CCC)C(=O)Nc1ccn([C@@H]2O[C@H](CO)[C@@H](O)C2(F)F)c(=O)n1", "half-life": "> 120"}
{"smiles": "C=CC1=C(C(=O)O)N2C(=O)[C@@H](NC(=O)/C(=N\\OCC(=O)O)c3csc(N)n3)[C@H]2SC1", "half-life": "> 120"}
{"smiles": "N[C@@H](CC(=O)Nc1ccc(Oc2cc(F)c(F)cc2Br)cc1)C(=O)O", "half-life": "> 120"}
{"smiles": "CCN1CCN(C(=O)c2cc(-c3ccc(F)cc3)nc3c2cnn3C)CC1", "half-life": 99.2}
{"smiles": "CCN(CC)CCOc1ccc2c(c1)C(=O)c1cc(OCCN(CC)CC)ccc1-2", "half-life": "> 120"}
{"smiles": "Cc1cc2c(F)c(Oc3ncnn4cc(OCC(C)O)c(C)c34)ccc2[nH]1", "note": "(stereo not given)", "half-life": "> 120"}
{"smiles": "Cc1ccc([S+](=O)([O-])NC2CCC(C)(C)CC2)cc1", "half-life": 4.82}
{"smiles": "O=C(O)c1ccccc1-c1c2cc(Br)c(=O)c(Br)c-2oc2c(Br)c(O)c(Br)cc12", "half-life": "> 120"}
{"smiles": "OC1(c2ccc(Cl)cc2)c2ccccc2C2=NCCN21", "note": "(stereo not given)", "half-life": 74.4}
{"smiles": "CCN(CC)C(C)C(=O)c1ccccc1", "note": "(stereo not given)", "half-life": "> 120"}
{"smiles": "CCOC(=O)c1ncn2c1CN(C)C(=O)c1c(I)cccc1-2", "half-life": 111}
{"smiles": "COc1ccc(CNC(=O)c2cnn(-c3ccc(C)cc3)c2C2CCN(C(=O)OC(C)(C)C)CC2)cc1", "half-life": 0.7}
{"smiles": "CC(=O)Nc1cccc(O)c1", "half-life": "> 120"}
{"smiles": "NC(=O)c1ccccc1O", "half-life": "> 120"}
{"smiles": "CC(Cc1ccccc1)(NC(=O)CN)c1ccccc1", "note": "(stereo not given)", "half-life": "> 120"}
{"smiles": "CN(C)c1nc(NC2CCC(NCCc3ccc(Br)cc3OC(F)(F)F)CC2)nc2ccccc12", "note": "(stereo not given)", "half-life": "> 120"}
{"smiles": "CCOC(=O)c1sc(NC(=O)c2c(-c3ccccc3)c(-c3ccccc3)nn(C)c2=O)nc1C", "half-life": "> 120"}
{"smiles": "CC(C)(C)C(=O)OCOP(=O)(COCCn1cnc2c(N)ncnc21)OCOC(=O)C(C)(C)C", "half-life": 3.13}
{"smiles": "COc1ccc(CCO[C@@H]2CCCC[C@H]2N2CC[C@@H](O)C2)cc1OC", "half-life": "> 120"}
{"smiles": "COP(N)(=O)SC", "note": "(stereo not given)", "half-life": 51.6}
{"smiles": "CCCCCCCCCCCCCCCCCCN(C)C", "half-life": "> 120"}
{"smiles": "CS(=O)(=O)c1ccc([C@@H](O)[C@@H](CO)NC(=O)C(Cl)Cl)cc1", "half-life": "> 120"}
{"smiles": "COCC(=O)NCC=Cc1ccc2ncnc(Nc3ccc(Oc4ccc(C)nc4)c(C)c3)c2c1", "half-life": 22.7}
{"smiles": "CCCCN(CCCC)CCC(O)c1cc2c(Cl)cc(Cl)cc2c2cc(C(F)(F)F)ccc12", "note": "(stereo not given)", "half-life": 29.5}
{"smiles": "C(#Cc1cccc(CN2CCOCC2)c1)CCN1CCCCC1", "half-life": "> 120"}
{"smiles": "O=C(NOCC1CC1)c1ccc(F)c(F)c1Nc1ccc(I)cc1Cl", "half-life": 11.2}
{"smiles": "Nc1ncnc2c1ncn2Cc1c(F)cccc1Cl", "half-life": "> 120"}
{"smiles": "CCC[C@H](N[C@@H](C)C(=O)N1[C@H](C(=O)O)C[C@@H]2CCCC[C@@H]21)C(=O)OCC", "half-life": "> 120"}
{"smiles": "CC(=O)[C@@]1(O)CC[C@H]2C3CCC4=CC(=O)CC[C@]4(C)C3CC[C@@]21C", "note": "(stereo not given in full)", "half-life": 9.86}
{"smiles": "CN1C2CCC(C)(C)C1CC(OC(=O)C(O)(c1cccs1)c1cccs1)C2", "note": "(stereo not given)", "half-life": 26.5}
{"smiles": "CN(C)CCN(Cc1cccs1)c1ccccn1", "half-life": 23.8}
{"smiles": "Cc1cccc(N2CCN(C(=O)CCC(=O)NNc3nc4ccccc4c4nc(C)nn34)CC2C)c1", "note": "(stereo not given)", "half-life": 6.71}
{"smiles": "C[C@]12CCC3c4ccc(O)cc4C[C@@H](CCCCCCCCCS(=O)CCCC(F)(F)C(F)(F)F)[C@H]3[C@@H]1CC[C@@H]2O", "note": "(stereo not given in full)", "half-life": 4.1}
{"smiles": "Cc1cccc(NC(=O)Nc2cccs2)c1C", "half-life": 10.2}
{"smiles": "COc1ccc2c3c1O[C@H]1[C@@H](O)C=C[C@H]4[C@@H](C2)N(C)CC[C@@]341", "half-life": 112}
{"smiles": "O=Nc1c(-c2c(O)[nH]c3cc(Br)ccc23)[nH]c2ccccc12", "half-life": 19}
{"smiles": "COc1cc2c(cc1OC)CN(C(=O)[C@H](C)N[C@@H](CCc1ccccc1)C(=O)O)[C@H](C(=O)O)C2", "half-life": "> 120"}
{"smiles": "COc1cc(Nc2nc3ccccc3nc2NS(=O)(=O)c2ccc(NC(=O)c3ccc(C)c(OC)c3)cc2)cc(OC)c1", "half-life": "> 120"}
{"smiles": "NC(N)=Nc1nc(CSCC/C(N)=N/S(N)(=O)=O)cs1", "half-life": "> 120"}
{"smiles": "O[C@@H]1CO[C@H]2[C@@H]1OC[C@@H]2O", "half-life": "> 120"}
{"smiles": "COc1cccc(CCc2ccccc2OCC(CN(C)C)OC(=O)CCC(=O)O)c1", "note": "(stereo not given)", "half-life": 38.8}
{"smiles": "C=C1CCN([C@H](C)[C@](O)(Cn2cncn2)c2ccc(F)cc2F)CC1", "half-life": 10}
{"smiles": "CNS(=O)(=O)c1ccc(Cc2c(-c3cccc(-c4ccccc4)c3)[nH]n(-c3nc(C(=O)O)cs3)c2=O)cc1", "half-life": "> 120"}
{"smiles": "OCCN1CCN(CC/C=C2/c3ccccc3Sc3ccc(C(F)(F)F)cc32)CC1", "half-life": 48.4}
